From ChEMBL document CHEMBL1140703, “Design, synthesis, and biological evaluation of classical and nonclassical 2-amino-4-oxo-5-substituted-6-methylpyrrolo[3,2-d]pyrimidines as dual thymidylate synthase and dihydrofolate reductase inhibitors” (J Med Chem, 2008)
pIC50: −log10 of the molar value.

Legend:
Thymidylate synthase [1] = biological target: Thymidylate synthase (Homo sapiens, UniProt P04818); assay: Inhibition of human thymidylate synthase
Thymidylate synthase [2] = biological target: Thymidylate synthase (Escherichia coli, UniProt C3SWJ7); assay: Inhibition of Escherichia coli thymidylate synthase
Sequence of Thymidylate synthase (Escherichia coli, UniProt C3SWJ7) (C3SWJ7 whole entry): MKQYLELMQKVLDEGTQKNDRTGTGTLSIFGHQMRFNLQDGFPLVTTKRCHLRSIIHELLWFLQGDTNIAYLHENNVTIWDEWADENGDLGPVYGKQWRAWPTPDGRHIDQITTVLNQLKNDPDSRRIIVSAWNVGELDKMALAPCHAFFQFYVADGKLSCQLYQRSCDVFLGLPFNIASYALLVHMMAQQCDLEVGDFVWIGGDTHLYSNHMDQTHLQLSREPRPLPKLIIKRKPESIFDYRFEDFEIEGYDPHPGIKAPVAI

[3] = Inhibition of Toxoplasma gondii thymidylate synthase
[4] = Inhibition of Escherichia coli DHFR
[5] = Inhibition of Toxoplasma gondii DHFR
[6] = Selectivity ratio of IC50 for Toxoplasma gondii DHFR over IC50 for human recombinant DHFR
Escherichia coli [7] = assay: Inhibition of Escherichia coli DHFR at >30 uM
Dihydrofolate reductase = biological target: T1, Dihydrofolate reductase (Homo sapiens, UniProt P00374)
T1 sequence (P00374 whole entry): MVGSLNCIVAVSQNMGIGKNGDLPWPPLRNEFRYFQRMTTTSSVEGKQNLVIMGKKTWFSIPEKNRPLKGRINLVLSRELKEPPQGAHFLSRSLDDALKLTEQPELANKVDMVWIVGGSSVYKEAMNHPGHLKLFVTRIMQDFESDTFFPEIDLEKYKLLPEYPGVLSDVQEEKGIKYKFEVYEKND

[8] = biological target: Thymidylate synthase (Escherichia coli) (UniProt C3SWJ7); assay: Inhibition of Escherichia coli thymidylate synthase at >[…] uM
Sequence of Thymidylate synthase (Escherichia coli) (C3SWJ7 1-264): as the sequence (C3SWJ7 whole entry) above

[9] = biological target: Thymidylate synthase (Escherichia coli) (UniProt C3SWJ7); assay: Inhibition of Escherichia coli thymidylate synthase >[…] uM
Toxoplasma gondii [10] = assay: Inhibition of Toxoplasma gondii thymidylate synthase at >[…] uM
Escherichia coli [11] = assay: Inhibition of Escherichia coli DHFR at >[…] uM
[12] = biological target: Thymidylate synthase (Escherichia coli) (UniProt C3SWJ7); assay: Inhibition of Escherichia coli thymidylate synthase at >20 uM
Toxoplasma gondii [13] = assay: Inhibition of Toxoplasma gondii thymidylate synthase at >20 uM
[14] = biological target: T2, Dihydrofolate reductase (Homo sapiens) (UniProt P00374); assay: Inhibition of human recombinant DHFR at >[…] uM
T2 sequence (whole entry): T1 sequence (P00374 whole entry)

[15] = biological target: T2, Dihydrofolate reductase (Homo sapiens); assay: Inhibition of human recombinant DHFR at >62 uM

Sequence of Thymidylate synthase (Homo sapiens, UniProt P04818) (P04818 whole entry): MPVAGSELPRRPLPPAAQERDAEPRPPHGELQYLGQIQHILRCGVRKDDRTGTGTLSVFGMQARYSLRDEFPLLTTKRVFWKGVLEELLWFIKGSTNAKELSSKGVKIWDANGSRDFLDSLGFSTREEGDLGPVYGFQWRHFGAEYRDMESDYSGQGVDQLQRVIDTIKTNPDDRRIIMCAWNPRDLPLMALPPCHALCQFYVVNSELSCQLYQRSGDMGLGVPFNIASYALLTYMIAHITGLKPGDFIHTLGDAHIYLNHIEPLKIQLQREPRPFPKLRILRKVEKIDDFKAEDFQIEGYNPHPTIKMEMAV

SMILES	inhibition (Escherichia coli [7])	pIC50 (Dihydrofolate reductase)	inhibition (Escherichia coli [11])	inhibition [15]	pIC50 (Thymidylate synthase [1])	pIC50 (Thymidylate synthase [2])	pIC50 [3]	pIC50 [4]	pIC50 [5]	Ratio IC50 [6]	inhibition [8]	inhibition [9]	inhibition (Toxoplasma gondii [10])	inhibition [12]	inhibition (Toxoplasma gondii [13])	inhibition [14]
Cc1[nH]c2nc(N)[nH]c(=O)c2c1Sc1ccc([N+](=O)[O-])cc1		< 4.27														
Cc1cc2nc(N)[nH]c(=O)c2n1Cc1cc(Cl)cc(Cl)c1		< 4.51	0%		< 4.59	< 4.59	< 4.59	< 4.51	4.82	> 2.1	0%	15%	13%			
COc1ccc(Cn2c(C)cc3nc(N)[nH]c(=O)c32)cc1		< 4.46	0%		5.82	4.82	4.77	< 4.46	5.46	> 10						
Cc1cc2nc(N)[nH]c(=O)c2n1Cc1ccncc1		< 4.43			5.64	4.92	4.82	4.41	4.70	> 1.8						
Cc1cc2nc(N)[nH]c(=O)c2n1Cc1cc(Br)cc(Br)c1		< 4.62	0%		5.00	< 4.70	< 4.70	< 4.62	4.62	> 1				36%	24%	0%
Cc1cc2nc(N)[nH]c(=O)c2n1Cc1ccccc1		< 4.41			4.70	< 4.41	< 4.41	< 4.41	5.41	> 10			0%			
Cc1[nH]c2nc(N)[nH]c(=O)c2c1Sc1ccc(Cl)c(Cl)c1		< 4.21		0%												
Cc1cc2nc(N)[nH]c(=O)c2n1Cc1ccc(C(=O)N[C@@H](CCC(=O)O)C(=O)O)cc1		6.92	23%		7.34	7.16	6.64	< 4.64	7.64	5.2						

Further lines, with some results ahead:

inhibition (Escherichia coli [7])	pIC50 (Dihydrofolate reductase)	inhibition (Escherichia coli [11])	inhibition [15]	SMILES	pIC50 (Thymidylate synthase [1])	pIC50 (Thymidylate synthase [2])	pIC50 [3]	pIC50 [4]	pIC50 [5]	Ratio IC50 [6]	inhibition [8]	inhibition [9]	inhibition (Toxoplasma gondii [10])	inhibition [12]	inhibition (Toxoplasma gondii [13])	inhibition [14]
10%	< 4.46			Cc1cc2nc(N)[nH]c(=O)c2n1Cc1ccc(Br)cc1	5.89	5.12	4.74	< 4.52	6.57	> 130						
	4.48	0%		Cc1cc2nc(N)[nH]c(=O)c2n1Cc1ccc([N+](=O)[O-])cc1	5.85	4.85	4.55	< 4.48	6.48	100						
	< 4.46	0%		Cc1cc2nc(N)[nH]c(=O)c2n1Cc1ccc(Cl)cc1	5.54	5.82	4.77	< 4.46	6.46	> 100						
	< 4.49	0%		Cc1cc2nc(N)[nH]c(=O)c2n1Cc1ccc(Cl)c(Cl)c1	5.27	4.57	4.57	< 4.49	5.80	> 20						
	< 4.43	0%		Cc1cc2nc(N)[nH]c(=O)c2n1Cc1ccc(F)cc1	5.43	4.51	4.66	< 4.43	5.74	> 20.5						
	< 4.46	0%		Cc1cc2nc(N)[nH]c(=O)c2n1Cc1ccc(OC(F)(F)F)cc1	5.89	5.12	4.89	< 4.46	6.52	> 117						
